Source: patent US10189796B2, “[4-(1,3,3-trimethyl-2-oxo-3,4-dihydro-1H-quinoxalin-7-yl)phenoxy]ethyloxy compound or salt thereof” (SANTEN PHARMACEUTICAL CO., LTD., priority 2015, dated 2019)

Experiments:
[1] = tested on: VEGF-induced retinal elevated vascular permeability model of rabbits; experiment: Retinal vascular permeability model evaluation test; format: in vivo, rabbit; settings: 8% 50 μL/base agent A, intravitreal once; 4 weeks before VEGF induction
Description: In order to evaluate the inhibitory effect of the present compounds on VEGF-induced retinal vascular permeability, the inhibitory effect of the present compound on retinal vascular permeability in a VEGF-induced retinal elevated vascular permeability model of rabbits was evaluated. Incidentally, this effect was evaluated by calculating a leaked amount of the fluorescent dye of the base agent administered group (non-induced group), a leaked amount of the fluorescent dye of the base agent administered group (control group) and a leaked amount of the fluorescent dye of the test compound administered group.
To the test compound was added 0.01% Polysorbate 80/0.5% sodium carboxymethyl cellulose/PBS (hereinafter referred to as “base agent A”.), whereby 2% (W/V) or 8% (W/V) of the test compound suspension was prepared. Or else, to the test compound was added PEG400 (hereinafter referred to as “base agent B”.), whereby 6% (W/W) of the test compound solution was prepared.
VEGF solution: humanVEGF165 was dissolved in PBS to prepare 50 μg/mL of VEGF solution.
• 1) A mixed solution (1 mL/kg) of 5% ketamine hydrochloride injection solution and 2% xylazine hydrochloride injection solution with the ratio of 7:1 was intramuscularly administered to rabbits (Dutch male rabbits), and the rabbits were anesthetized. • 2) Tropicamide-phenylephrine hydrochloride ophthalmic solution (trade name: Midlin P) was eye dropped to maintain pupillary mydriasis, and then, the VEGF solution was intravitreally administered. Incidentally, PBS was intravitreally administered to the base agent administration group (non-induced group). • 3) Fluorescein was intravenously administered 2 days after intravitreal administration of VEGF. Two hours after the intravenous administration of fluorescein, an amount of the leaked fluorescent dye in the vitreous body was measured by using a fluorophotometer. (Test Method) • 1) One week before or 4 weeks before VEGF-induction, 50 μL of the test compound suspension (prepared by the base agent A) was intravitreally administered once, or 5 μL of the test compound solution (prepared by the base agent B) was intravitreally administered once. Incidentally, in the base agent administered group (non-induced group) and the base agent administered group (control group), the base agent A was used in place of the test compound suspension, or the base agent B was used in place of the test compound solution. • 2) Inhibition ratio of elevated retinal vascular permeability was calculated according to the following calculation formula. (Calculation Formula) Inhibitory ratio (%) on elevated retinal vascular permeability of the test compound administered group=100×{1−(average value of a leaked fluorescent dye amount in the test compound administered group−average value of a leaked fluorescent dye amount in the base agent administered group (non-induced group))/(average value of a leaked fluorescent dye amount in the base agent administered group (control group)−average value of a leaked fluorescent dye amount of the base agent administered group (non-induced group))}

[2] = tested on: TNFα production in rat whole blood; experiment: TNFα production inhibitory action evaluation test (LPS stimulation ex vivo, ELISA); format: cell-based; settings: 20 hours, 200 μM test compound solution 10 μL/well, DEX treated group = 100, read-out: TNFα production inhibitory ratio (% DEX)
Description: In order to evaluate an action of the present compound as a GR agonist, a TNFα production inhibitory action in rat whole blood after LPS stimulation ex vivo was investigated. For the measurement of the TNFα production amount, the ELISA method (manufactured by R&D Systems, Cat No. RTA00) was used, and a procedure was carried out according to the protocol attached thereto. Hereinafter, the specific method will be described.
LPS solution: LPS was dissolved in PBS(−) and diluted with RPMI 1640 to prepare an LPS solution with a concentration of 2 μg/mL.
After the test compound was dissolved in dimethylsulfoxide, the solution was diluted with PBS(−) to prepare 200 μM of a test compound solution. In addition, DEX was similarly dissolved to prepare 200 μM of a DEX solution, and a TNFα production inhibitory ratio of DEX was measured, and used for calculation of Efficacy (% DEX).
• 1) Blood was collected from 3 to 5 rats using an injection syringe treated with heparin from the abdominal aorta under isoflurane anesthesia. The rats confirmed death after lething the whole blood. • 2) The blood of 3 to 5 rats pooled in a 96-well round bottom culture plate was seeded at each 180 μL/well. • 3) It was cultured (37° C., 5% CO2, 95% air) for about 1 hour. • 4) The test compound solution was added each 10 μL/well, and cultured for 1 hour. • 5) LPS solution was added each 10 μL/well. • 6) The sample in which 2% dimethylsulfoxide-containing PBS(−) was added with each 10 μL/well in place of each test compound solution, and RPMI 1640 was added with each 10 μL/well in place of the LPS solution was made a negative control. • 7) The sample in which 2% dimethylsulfoxide-containing PBS(−) was added with each 10 μL/well in place of each test compound solution was made a positive control. • 8) After completion of 20 hours cultivation, the supernatant was recovered and the amount of TNFα released in the supernatant was measured by using an ELISA Kit. • 9) The TNFα production inhibitory ratio was calculated according to the following calculation formula. (Calculation of TNFα Production Inhibitory Ratio)
TNFα production inhibitory ratio (%) was calculated according to the following formula. TNFα production inhibitory ratio (%)=100×{1−(TNFα production amount of each test compound solution−average value of TNFα production amount of negative control group)/(average value of TNFα production amount of positive control group−average value of TNFα production amount of negative control group)}(%)
(§1) Further, a TNFα production inhibitory ratio (Efficacy (% DEX)) when the DEX treated group was made 100 was calculated. Efficacy (% DEX)=100×{(average value of TNFα production inhibitory ratio of each test compound solution)/(average value of TNFα production inhibitory ratio of DEX treated group)}(%)

Recombinant human GR = Recombinant human GR (Homo sapiens (Human), UniProt P04150); experiment: GR competitive binding assay by fluorescence polarization; settings: 20 μM test compound solution, 10 μL/well; 2 hours; DEX positive control; read-out: GR binding rate (%)
Description: In order to evaluate a binding activity of the present compound to GR, a GR receptor competitor assay was carried out by a fluorescence polarization method. In the assay, a GR competitive binding assay kit (manufactured by Invitrogen, cat No. P2816) was used for the assay, and a procedure was carried out according to the protocol attached to the kit. Hereinafter, the specific method will be described.
GR screening buffer: A buffer containing 10 mM of potassium phosphate (pH 7.4), 20 mM of sodium molybdate (Na2MoO4), 0.1 mM of ethylene diamine tetraacetic acid (EDTA), 5 mM of dithiothreitol (DTT), 0.1 mM of stabilizing peptide and 2% of dimethylsulfoxide was prepared.
4×GS1 solution: Fluormone™ GS1, which is a fluorescent glucocorticoid ligand, was diluted with GR screening buffer, whereby a 4 nM solution was prepared.
4×GR solution: Recombinant human GR was diluted with GR screening buffer, whereby a 16 nM solution was prepared.
After a test compound was dissolved in dimethylsulfoxide, the resulting solution was diluted with GR screening buffer, whereby a 20 μM test compound solution was prepared. In addition, DEX was similarly dissolved, whereby a DEX solution with a […] concentration was prepared, and the solution was diluted with GR screening buffer, whereby a 2 mM DEX solution was prepared. DEX was used as positive control.
• 1) The test compound solution was added in an amount of 10 μL into each well of a 384-well plate. • 2) 4×GS1 solution and 4×GR solution were added in an amount of 5 μL into each well, respectively. • 3) GR screening buffer was added in an amount of 10 μL/well into each well in place of the test compound solution, which was made a negative control. • 4) A 2 mM of DEX was added in an amount of 10 μL/well into each well in place of the test compound solution, which was made a positive control. • 5) The plate was incubated in a dark place at room temperature for 2 hours, and fluorescence polarization of each well was measured. (Calculation Equation of GR Binding Ratio)
A GR binding ratio (%) was calculated from the following equation. GR binding ratio (%)=100×{1−(fluorescence polarization of test compound solution−average value of fluorescence polarization of positive control solution)/(average value of fluorescence polarization of negative control solution−average value of fluorescence polarization of positive control solution)}

[3] = tested on: IL-6 production in human corneal epithelium cell line (HCE-T); experiment: IL-6 production inhibitory action evaluation test (LPS stimulation, HTRF); format: cell-based; settings: 4 hours
Description: To evaluate the action of the present compounds as a GR agonist, IL-6 production inhibitory action in human corneal epithelial cell line after LPS stimulation was examined The IL-6 production was measured by using the HTRF method (Cat No. 62IL6PEB manufactured by Cisbio Bioassays, Inc.) according to the attached protocol. The specific method is described below.
LPS solution: After dissolving LPS in PBS(−), the resulting solution was diluted with a culture solution, whereby an LPS solution with a 1 μg/mL concentration was prepared.
After dissolving the test compound in dimethylsulfoxide, the solution was diluted with a 10% FBS-DMEM/Ham's F12 medium, whereby a 100 μM of the test compound solution was prepared. […] In addition, DEX was similarly dissolved, whereby a 100 μM concentration of the DEX solution was prepared, and an IL-6 production inhibitory ratio of DEX was measured, and used for calculation of Efficacy (% DEX).
Used cells: human corneal epithelium cell line (HCE-T) (RIKEN, Institute of Physical and Chemical Research)
The cells continued to subculture according to this method were used for the test. (Test Method and Measurement Method) • 1) The subcultured HCE-T was recovered and the cells were seeded at 2.0×10^4 cells/0.1 mL/well in a 96-well flat bottom culture plate. • 2) After culturing overnight, medium the medium was removed and each 80 μL/well of 10%
FBS-DMEM/Ham's F12 medium was added. • 3) Test compound solution was added with each 10 μL/well. • 4) LPS solution was added with each 10 μL/well. • 5) The sample to which 1% dimethylsulfoxide-containing 10% FBS-DMEM/Ham's F12 medium was added with each 10 μL/well in place of each test compound solution, and 10% FBS-DMEM/Ham's F12 medium was added in place of the LPS solution was made a negative control. • 6) The sample in which 1% dimethylsulfoxide-containing 10% FBS-DMEM/Ham's F12 medium was added with each 10 μL/well in place of each test compound solution was made a positive control. • 7) After completion of 4 hours cultivation, the supernatant was recovered and the amount of IL-6 released in the supernatant was measured by using an HTRF human IL-6 Kit. • 8) The IL-6 production inhibitory ratio was calculated according to the following calculation formula. (Calculation of IL-6 Production Inhibitory Ratio)
The IL-6 production inhibitory ratio (%) was calculated by the following formula. IL-6 production inhibitory ratio (%)=100×{1−(IL-6 produced amount of each test compound solution−average value of IL-6 produced amount of negative control group)/(average value of IL-6 produced amount of positive control group−average value of IL-6 produced amount of negative control group)}(%)
as §1, with “the IL-6” for “a TNFα”, “IL-6” for “TNFα”
In addition, IC50 was calculated according to a conventional method. IDBS XLfit4 was used for the calculation.

Chain of Recombinant human GR (P04150 whole entry): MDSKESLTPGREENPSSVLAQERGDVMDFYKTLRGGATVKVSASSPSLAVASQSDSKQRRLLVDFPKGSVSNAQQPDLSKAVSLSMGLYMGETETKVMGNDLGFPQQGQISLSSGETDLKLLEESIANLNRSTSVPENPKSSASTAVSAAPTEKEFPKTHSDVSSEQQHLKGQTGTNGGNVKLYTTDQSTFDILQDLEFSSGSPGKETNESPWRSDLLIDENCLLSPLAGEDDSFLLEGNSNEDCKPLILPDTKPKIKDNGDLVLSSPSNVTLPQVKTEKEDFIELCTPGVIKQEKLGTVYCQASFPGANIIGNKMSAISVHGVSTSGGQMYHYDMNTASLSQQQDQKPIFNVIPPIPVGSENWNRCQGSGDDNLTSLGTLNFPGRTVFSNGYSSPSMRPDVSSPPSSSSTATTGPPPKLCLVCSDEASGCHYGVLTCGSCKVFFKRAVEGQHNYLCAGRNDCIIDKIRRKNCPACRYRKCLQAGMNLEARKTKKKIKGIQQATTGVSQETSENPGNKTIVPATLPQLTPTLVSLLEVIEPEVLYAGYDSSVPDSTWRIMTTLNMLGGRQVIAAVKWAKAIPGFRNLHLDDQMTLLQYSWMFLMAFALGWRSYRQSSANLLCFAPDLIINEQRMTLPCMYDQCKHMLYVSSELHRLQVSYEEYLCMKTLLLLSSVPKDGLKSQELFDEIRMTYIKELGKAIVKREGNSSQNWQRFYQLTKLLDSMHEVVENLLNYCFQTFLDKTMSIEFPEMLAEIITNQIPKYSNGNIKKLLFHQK

SMILES | inhibition at 10 µM (Recombinant human GR) | Inhibitory ratio (%) on elevated vascular permeability [1] | Emax [2] | Emax ([3]; 100 μM test compound solution 10 μL/well, DEX treated group = 100, read-out: IL-6 production inhibitory ratio (% DEX)) | IC50 ([3]; IL-6 production inhibition)
COc1cc(OC[C@H](CC#N)OP(=O)(O)O)ccc1-c1ccc2c(c1COc1cc(F)ccc1C)N(C)C(=O)C(C)(C)N2 [Compound 14-3, (S)-7-[4-(3-cyano-2-phosphonohydroxypropyl)oxy-2-methoxyphenyl]-8-(5-fluoro-2-methylphenoxymethyl)-1,3,3-trimethyl-3,4-dihydro-1H-quinoxalin-2-one] | – | 89% | – | – | –
CC[C@@H](O)COc1ccc(-c2ccc3c(c2COc2cc(F)ccc2C)N(C)C(=O)C(C)(C)N3)c(OC)c1 [Compound 1-4, (R)-8-(5-fluoro-2-methylphenoxymethyl)-7-[4-(2-hydroxybutyl)oxy-2-methoxyphenyl]-1,3,3-trimethyl-3,4-dihydro-1H-quinoxalin-2-one] | > 99% | – | 94% | 92% | 34 nM
COc1cc(OCC(O)C(F)(F)F)ccc1-c1ccc2c(c1COc1cc(F)ccc1C)N(C)C(=O)C(C)(C)N2 (stereo not drawn) [Compound 1-2, 8-(5-Fluoro-2-methylphenoxymethyl)-7-[4-(2-hydroxy-3,3,3-trifluoro-propyl)oxy-2-methoxyphenyl]-1,3,3-trimethyl-3,4-dihydro-1H-quinoxalin-2-one] | – | – | 94% | – | –

Now from value to compound, other results behind:

inhibition at 10 µM (Recombinant human GR) | SMILES | Inhibitory ratio (%) on elevated vascular permeability [1] | Emax [2] | Emax ([3]; 100 μM test compound solution 10 μL/well, DEX treated group = 100, read-out: IL-6 production inhibitory ratio (% DEX)) | IC50 ([3]; IL-6 production inhibition)
91% | COc1cc(OC[C@H](O)CCO)ccc1-c1ccc2c(c1COc1cc(F)ccc1C)N(C)C(=O)C(C)(C)N2 [Compound 2-2, (R)-7-[4-(2,4-dihydroxybutyl)oxy-2-methoxyphenyl]-8-(5-fluoro-2-methyl-phenoxymethyl)-1,3,3-trimethyl-3,4-dihydro-1H-quinoxalin-2-one] | – | 95% | – | –
95% | COc1cc(OC[C@@H](C)O)ccc1-c1ccc2c(c1COc1cc(F)ccc1C)N(C)C(=O)C(C)(C)N2 [Compound 1-3, (R)-8-(5-fluoro-2-methylphenoxymethyl)-7-[4-(2-hydroxypropyl)oxy-2-methoxy-phenyl]-1,3,3-trimethyl-3,4-dihydro-1H-quinoxalin-2-one] | – | 93% | – | –
> 99% | COc1cc(OCC(O)CC(=O)N2CCOCC2)ccc1-c1ccc2c(c1COc1cc(F)ccc1C)N(C)C(=O)C(C)(C)N2 (stereo not drawn) [Compound 10-2, 8-(5-fluoro-2-methylphenoxymethyl)-7-[4-[3-(N-morpholino)carbonyl-2-hydroxypropyl]oxy-2-methoxyphenyl]-1,3,3-trimethyl-3,4-dihydro-1H-quinoxalin-2-one] | – | > 99% | – | –
